From patent publication US9249129B2, “Morpholino substituted urea derivatives as mTOR inhibitors” (CELLZOME LIMITED, priority 2010, dated 2016)

System: Akt serine-473 phosphorylation in HEK293T/17 cells
Test: In vitro phospho-Akt cellular assay (pAkt S473)
Assay type: cell-based
Settings: Homo sapiens, Table 6, 2 hours, Akt Ser473, read-out: pAKT (Phospho-Akt cell assay data, activity level)
Text: In Vitro Phospho-S6 and Phospho-Akt Cellular Assay
Activation of mTOR signaling results in phosphorylation of several downstream targets. In cells, mTOR exists in two different protein complexes. The mTOR Complex-1 (mTORC1) phosphorylates and activates S6 Kinase 1 (S6K1) and S6 Kinase 2 (S6K2) (also known as p70S6K) which then phosphorylate S6 Ribosomal Protein (S6RP) (also known as RPS6). S6RP is phosphorylated on serine 235, serine 236, serine 240 and serine 244 by both pS6K1 and pS6K2. The mTOR Complex-2 (mTORC2) phosphorylates AKT on serine 473 which activates the AKT signaling pathway.
The assay measures a test compound's inhibition of S6RP serine-240/244 phosphorylation and inhibition of Akt serine-473 phosphorylation in human embryonic kidney derived HEK293T/17 cells (ATCC CRL-11268).
The HEK293T/17 cell line is maintained in DMEM media (Invitrogen catalogue number 41965-039) supplemented with 10% FCS at 37° C. in a 5% CO2 humidified incubator.
Cells are seeded in 96-well plates at 40,000 cells/well (pS6RP S240/244 assay) or 80,000 cells/well (pAkt 5473 assay) in 90 μl growth media (DMEM, 2% FCS). Plates are incubated for 1 hour in a humidified incubator to allow the cells to adhere. Cells are treated with 8 concentrations of test compounds or DMSO alone for controls (final DMSO concentration 0.1%) and incubated at 37° C. for 2 hours. Then 20 μl of 5× concentrated lysis buffer (750 mM NaCl, 100 mM Tris pH7.4, 5 mM EDTA, 5 mM EGTA, 5% Triton X-100) is added, plates are sealed and incubated for 15 minutes at 4° C. with gentle shaking. After cell lysis, 25 μl cell lysate is transferred to a MesoScale plate coated with an antibody to pS6RP Ser240/244 (MesoScale Discovery K150DGD-3) or an antibody to pAkt Ser 473 (MesoScale Discovery K151DGD-3). Plates have been blocked before by incubation with 150 μl MesoScale Discovery Blocking Solution-A for 1 hour at room temperature followed by washing with 150 μl 1× Tris wash buffer per well. After the transfer of the cell lysate to the MSD plate, the pS6RP (or pAkt) protein is captured on the coated antibody by incubation at room temperature for 1 hour with gentle shaking. After the capture step the plate is washed three times with 150 μl of 1× Tris wash buffer per well. Then 25 μl detection antibody conjugated with a Sulfo-Tag is added and incubated for 1 hour at room temperature with gentle shaking. Subsequently the antibody solution is removed and the plate is washed 3 times with 150 μl 1× Tris wash buffer per well and 150 μl Read buffer is added. The plates are analysed on a MSD 2400 Plate Reader (MesoScale Discovery). Data analysis is performed using nonlinear regression for a sigmoidal dose-response with a variable slope.

| SMILES | IC50 |
| --- | --- |
| C[C@H]1COCCN1c1nc(-c2ccc(NC(=O)NCCO)cc2)cc(-c2cc(F)ccc2S(C)(=O)=O)n1 [Example 41, (S)-1-(4-(6-(5-fluoro-2-(methylsulfonyl)phenyl)-2-(3-methylmorpholino)pyrimidin-4-yl)phenyl)-3-(2-hydroxyethyl)urea] | < 100 nM |
| C[C@H]1COCCN1c1ccnc(-c2ccc(NC(=O)Nc3ccncc3)cc2)n1 [Example 60, (S)-1-(4-(4-(3-methylmorpholino)pyrimidin-2-yl)phenyl)-3-(pyridin-4-yl)urea] | < 100 nM |
| C[C@H]1COCCN1c1cc(-c2ccccc2S(C)(=O)=O)nc(-c2ccc(NC(=O)NC3CC3)cc2)n1 [Example 6, (S)-1-cyclopropyl-3-(4-(4-(3-methylmorpholino)-6-(2-(methylsulfonyl)phenyl)pyrimidin-2-yl)phenyl)urea] | < 100 nM |
| CCNC(=O)Nc1ccc(-c2cc(-c3cc(F)ccc3S(C)(=O)=O)nc(N3CCOC[C@@H]3C)n2)cc1 [Example 2, (S)-1-ethyl-3-(4-(6-(5-fluoro-2-(methylsulfonyl)phenyl)-2-(3-methylmorpholino)pyrimidin-4-yl)phenyl)urea] | < 100 nM |
| C[C@H]1COCCN1c1cc(-c2ccc(F)nc2)nc(-c2ccc(NC(=O)NC3CC3)cc2)n1 [Example 21, (S)-1-cyclopropyl-3-(4-(4-(6-fluoropyridin-3-yl)-6-(3-methylmorpholino)pyrimidin-2-yl)phenyl)urea] | 100 to 1000 nM |
| C[C@H]1COCCN1c1cc(-c2cncc(F)c2)nc(-c2ccc(NC(=O)NC3CC3)cc2)n1 [Example 23, (S)-1-cyclopropyl-3-(4-(4-(5-fluoropyridin-3-yl)-6-(3-methylmorpholino)pyrimidin-2-yl)phenyl)urea] | < 100 nM |
| C[C@H]1COCCN1c1nc(-c2ccc(NC(=O)NCCF)cc2)cc(-c2cc(F)ccc2S(C)(=O)=O)n1 [Example 44, (S)-1-(4-(6-(5-fluoro-2-(methylsulfonyl)phenyl)-2-(3-methylmorpholino)pyrimidin-4-yl)phenyl)-3-(2-fluoroethyl)urea] | < 100 nM |
| C[C@H]1COCCN1c1nc(-c2ccc(NC(=O)NCC(F)F)cc2)cc(-c2cc(F)ccc2S(C)(=O)=O)n1 [Example 47, (S)-1-(2,2-difluoroethyl)-3-(4-(6-(5-fluoro-2-(methylsulfonyl)phenyl)-2-(3-methylmorpholino)pyrimidin-4-yl)phenyl)urea] | < 100 nM |
| C[C@H]1COCCN1c1nc(-c2ccc(NC(=O)NCCCO)cc2)cc(-c2cc(F)ccc2S(C)(=O)=O)n1 [Example 64, (S)-1-(4-(6-(5-fluoro-2-(methylsulfonyl)phenyl)-2-(3-methylmorpholino)pyrimidin-4-yl)phenyl)-3-(3-hydroxypropyl)urea] | < 100 nM |
| CS(=O)(=O)c1ccc(F)cc1-c1cc(-c2ccc(NC(=O)NCCO)cc2)nc(N2CCOCC2)n1 [Example 62, 1-(4-(6-(5-fluoro-2-(methylsulfonyl)phenyl)-2-morpholinopyrimidin-4-yl)phenyl)-3-(2-hydroxyethyl)urea] | < 100 nM |
| O=C(Nc1ccncc1)Nc1ccc(-c2nccc(N3CC4CCC(C3)O4)n2)cc1 [Example 61, 1-(4-(4-(8-oxa-3-azabicyclo[3.2.1]octan-3-yl)pyrimidin-2-yl)phenyl)-3-(pyridin-4-yl)urea] | < 100 nM |
| C[C@H]1COCCN1c1cc(-c2ccccn2)nc(-c2ccc(NC(=O)NC3CC3)cc2)n1 [Example 42, (S)-1-cyclopropyl-3-(4-(4-(3-methylmorpholino)-6-(pyridin-2-yl)pyrimidin-2-yl)phenyl)urea] | < 100 nM |
| C[C@H]1COCCN1c1nc(-c2ccc(NC(=O)NC3CC3)cc2)cc(-c2cccnc2S(C)(=O)=O)n1 [Example 46, (S)-1-cyclopropyl-3-(4-(2-(3-methylmorpholino)-6-(2-(methylsulfonyl)pyridin-3-yl)pyrimidin-4-yl)phenyl)urea] | < 100 nM |
| C[C@H]1COCCN1c1nc(-c2ccc(NC(=O)N[C@H]3CCC[C@@H]3O)cc2)cc(-c2cc(F)ccc2S(C)(=O)=O)n1 [Example 76, 1-(4-(6-(5-fluoro-2-(methylsulfonyl)phenyl)-2-((S)-3-methylmorpholino)pyrimidin-4-yl)phenyl)-3-((1S,2S)-2-hydroxycyclopentyl)urea] | < 100 nM |
| C[C@H]1COCCN1c1cc(-c2ccccn2)nc(-c2ccc(NC(=O)NCCO)cc2)n1 [Example 43, (S)-1-(2-hydroxyethyl)-3-(4-(4-(3-methylmorpholino)-6-(pyridin-2-yl)pyrimidin-2-yl)phenyl)urea] | < 100 nM |
| C[C@H]1COCCN1c1nc(-c2ccc(NC(=O)NC3CC3)cc2)cc(-c2cc(F)ccc2S(C)(=O)=O)n1 [Example 40, (S)-1-cyclopropyl-3-(4-(6-(5-fluoro-2-(methylsulfonyl)phenyl)-2-(3-methylmorpholino)pyrimidin-4-yl)phenyl)urea] | < 100 nM |
